Patent US20170318812A1, “Plant and Crop Growth Regulating/Biostimulant Formulations and Methods of Use” (Arysta Lifescience North America, LLC, priority 2014, published 2017)
Values joined by “and” are separate entries in the source; they are usually repeats but may differ in a detail not shown here. Identical values can stand only once.

Assays:
[1] = test system: SORVU Sorghum bicolor (Grain sorghum); assay: Ipfencarbazone biostimulant effect, early post emergence foliar application, greenhouse pots, plant height: sorghum; format: in vivo; conditions: SORVU DKB 590
From the text: (§1) The original objective of this Example was to evaluate the herbicidal effect of ipfencarbazone when applied as a post emergent treatment to a range of selected crops and weeds. Unexpectedly, crop plant growth stimulation was observed. The actual species of weeds and crops are listed in the summary data tabulated below and in FIGS. 1-13. By convention each plant species has a Bayer code (5-letter name) with the scientific name for the plant referenced in FIGS. 1-13. In each Figure, each tray contains the same configuration of weeds and/or crops. In each Figure there is one replication of each treatment (six treatments in total). The top three photographs in each Figure show the Bayer Codes and bottom three photographs are aligned with the top three facilitating viewing of the same plant species. Throughout the Examples various abbreviations as conventional shorthand notation and will be appreciated by those skilled in the art. Some exemplary abbreviations include, “CV”=Co-efficient of Variation,” “LSD”=Least Significant Difference” (G/L (gram per L) AND GA/L (gram of active ingredient per L); “SC”=suspension concentrate formulation. The diluent in all treatments was water. By convention factors that are identical in all treatments (e.g. diluent and surfactant) are not listed in each treatment.
(§2) Methods: The indicated size pots (see Tables below) are filled with a specific soil, the soil properties being indicated below. The referenced crops and weeds are planted by hand in each pot. […] The experiments include six treatments each replicated three times on each crop/weed species. At a specific time after emergence each crop and weed species was treated with ipfencarbazone plus a non-ionic surfactant (NIS). In the present Example, the surfactant employed was ENERGIC™ (non-ionic surfactant). The application timing is indicated in each of the Tables (1 or 2 leaf stage) below. Ipfencarbazone plus surfactant was diluted in water and applied at a rate equivalent to about 250 L/ha. Ipfencarbazone was applied using a track sprayer. After treatment, the pots were randomized in a greenhouse. At each assessment (indicated by “days after treatment” or DAT) the height of each plant was measured. The letters next to each mean indicate the level of statistical significance.
(§3) Replications: 3, Untreated treatments: 1, Design: Randomized Complete Block (RCB), Treatment units: Treated ‘Plot’ experimental unit size, Dry Form. Unit: %, Treated ‘Plot’ experimental unit size Width: 1 meter, Treated ‘Plot’ experimental unit size Length: 1.4 meters, Application volume: 250 L/ha, Mix size: 0.15 liters, […]

ZEAMX Zea mays (Corn) = assay: Ipfencarbazone biostimulant effect, early post emergence foliar application, greenhouse pots, plant height: corn; format: in vivo; conditions: ZEAMX AG7098PRO2
From the text: as §1, §2, §3

[2] = 125 g ai/ha, 28 DA-A, plots 103, 206, 305
[3] = 250 g ai/ha, 28 DA-A, plots 104, 201, 306
[4] = 500 g ai/ha, 28 DA-A, plots 105, 202, 301
[5] = 1000 g ai/ha, 28 DA-A, plots 106, 203, 304

Which results are given for `CC(C)N(C(=O)n1cnn(-c2ccc(Cl)cc2Cl)c1=O)c1ccc(F)cc1F` [ARY-0572-001, ipfencarbazone]?
HEIGHT, percent of untreated check (APoC) ([1]; 125 g ai/ha, 15 DA-A): (243.8%); HEIGHT, treatment mean ([1]; 125 g ai/ha, 15 DA-A): 59.3 a cm; HEIGHT, percent of untreated check (APoC) ([1]; 125 g ai/ha, 28 DA-A): (277.1%); HEIGHT, treatment mean ([1]; 125 g ai/ha, 28 DA-A): 79.4 a cm and 79.4 cm; HEIGHT, single plots (replicates) [1, 2]: 102.7 cm and 71.3 cm and 64.3 cm; HEIGHT, percent of untreated check (APoC) ([1]; 250 g ai/ha, 15 DA-A): (252.1%); HEIGHT, treatment mean ([1]; 250 g ai/ha, 15 DA-A): 61.3 a cm; HEIGHT, percent of untreated check (APoC) ([1]; 250 g ai/ha, 28 DA-A): (355.0%); HEIGHT, treatment mean ([1]; 250 g ai/ha, 28 DA-A): 101.8 a cm and 101.8 cm; HEIGHT, single plots (replicates) [1, 3]: 101.3 cm and 104.0 cm and 100.0 cm; HEIGHT, percent of untreated check (APoC) ([1]; 500 g ai/ha, 15 DA-A): (248.2%); HEIGHT, treatment mean ([1]; 500 g ai/ha, 15 DA-A): 60.4 a cm; HEIGHT, percent of untreated check (APoC) ([1]; 500 g ai/ha, 28 DA-A): (266.7%); HEIGHT, treatment mean ([1]; 500 g ai/ha, 28 DA-A): 76.4 a cm and 76.4 cm; HEIGHT, single plots (replicates) [1, 4]: 44.7 cm and 89.7 cm and 95.0 cm; HEIGHT, percent of untreated check (APoC) ([1]; 1000 g ai/ha, 15 DA-A): (93.2%); HEIGHT, treatment mean ([1]; 1000 g ai/ha, 15 DA-A): 22.7 b cm; HEIGHT, percent of untreated check (APoC) ([1]; 1000 g ai/ha, 28 DA-A): (123.6%); HEIGHT, treatment mean ([1]; 1000 g ai/ha, 28 DA-A): 35.4 b cm and 35.4 cm; HEIGHT, single plots (replicates) [1, 5]: 75.3 cm and 9.3 cm and 21.7 cm; HEIGHT, percent of untreated check (APoC) (ZEAMX Zea mays (Corn); 62.5 g ai/ha, 15 DA-A): (146.7%); HEIGHT, treatment mean (ZEAMX Zea mays (Corn); 62.5 g ai/ha, 15 DA-A): 56.1 a cm and 56.1 cm; HEIGHT, single plots (replicates) (ZEAMX Zea mays (Corn); 62.5 g ai/ha, 15 DA-A, plots 102, 205, 302): 52.3 cm and 64.8 cm and 51.0 cm; HEIGHT, percent of untreated check (APoC) (ZEAMX Zea mays (Corn); 62.5 g ai/ha, 28 DA-A): (175.8%); HEIGHT, treatment mean (ZEAMX Zea mays (Corn); 62.5 g ai/ha, 28 DA-A): 89.4 a cm and 89.4 cm; HEIGHT, single plots (replicates) (ZEAMX Zea mays (Corn); 62.5 g ai/ha, 28 DA-A, plots 102, 205, 302): 71.3 cm and 106.7 cm and 90.3 cm; HEIGHT, percent of untreated check (APoC) (ZEAMX Zea mays (Corn); 125 g ai/ha, 15 DA-A): (156.4%); HEIGHT, treatment mean (ZEAMX Zea mays (Corn); 125 g ai/ha, 15 DA-A): 59.8 a cm and 59.8 cm; HEIGHT, single plots (replicates) (ZEAMX Zea mays (Corn); 125 g ai/ha, 15 DA-A, plots 103, 206, 305): 62.7 cm and 59.0 cm and 57.7 cm; HEIGHT, percent of untreated check (APoC) (ZEAMX Zea mays (Corn); 125 g ai/ha, 28 DA-A): (168.8%); HEIGHT, treatment mean (ZEAMX Zea mays (Corn); 125 g ai/ha, 28 DA-A): 85.9 a cm and 85.9 cm; HEIGHT, single plots (replicates) (ZEAMX Zea mays (Corn); [2]): 103.0 cm and 82.0 cm and 72.7 cm; HEIGHT, percent of untreated check (APoC) (ZEAMX Zea mays (Corn); 250 g ai/ha, 15 DA-A): (155.4%); HEIGHT, treatment mean (ZEAMX Zea mays (Corn); 250 g ai/ha, 15 DA-A): 59.4 a cm and 59.4 cm; HEIGHT, single plots (replicates) (ZEAMX Zea mays (Corn); 250 g ai/ha, 15 DA-A, plots 104, 201, 306): 56.5 cm and 61.0 cm and 60.7 cm; HEIGHT, percent of untreated check (APoC) (ZEAMX Zea mays (Corn); 250 g ai/ha, 28 DA-A): (208.3%); HEIGHT, treatment mean (ZEAMX Zea mays (Corn); 250 g ai/ha, 28 DA-A): 106.0 a cm and 106.0 cm; HEIGHT, single plots (replicates) (ZEAMX Zea mays (Corn); [3]): 108.3 cm and 104.0 cm and 105.7 cm; HEIGHT, percent of untreated check (APoC) (ZEAMX Zea mays (Corn); 500 g ai/ha, 15 DA-A): (161.9%); HEIGHT, treatment mean (ZEAMX Zea mays (Corn); 500 g ai/ha, 15 DA-A): 61.9 a cm and 61.9 cm; HEIGHT, single plots (replicates) (ZEAMX Zea mays (Corn); 500 g ai/ha, 15 DA-A, plots 105, 202, 301): 58.7 cm and 67.0 cm and 60.0 cm; HEIGHT, percent of untreated check (APoC) (ZEAMX Zea mays (Corn); 500 g ai/ha, 28 DA-A): (205.9%); HEIGHT, treatment mean (ZEAMX Zea mays (Corn); 500 g ai/ha, 28 DA-A): 104.8 a cm and 104.8 cm; HEIGHT, single plots (replicates) (ZEAMX Zea mays (Corn); [4]): 101.7 cm and 107.7 cm and 105.0 cm; HEIGHT, percent of untreated check (APoC) (ZEAMX Zea mays (Corn); 1000 g ai/ha, 15 DA-A): (98.3%); HEIGHT, treatment mean (ZEAMX Zea mays (Corn); 1000 g ai/ha, 15 DA-A): 37.6 b cm and 37.6 cm; HEIGHT, single plots (replicates) (ZEAMX Zea mays (Corn); 1000 g ai/ha, 15 DA-A, plots 106, 203, 304): 48.7 cm and 34.7 cm and 29.3 cm; HEIGHT, percent of untreated check (APoC) (ZEAMX Zea mays (Corn); 1000 g ai/ha, 28 DA-A): (117.9%); HEIGHT, treatment mean (ZEAMX Zea mays (Corn); 1000 g ai/ha, 28 DA-A): 60.0 b cm and 60.0 cm; HEIGHT, single plots (replicates) (ZEAMX Zea mays (Corn); [5]): 91.7 cm and 44.0 cm and 44.3 cm
